Assay results published in article PMC12135066, “Design and Preclinical Evaluation of Novel uPAR-Targeting Radiopeptides Modified with an Albumin-Binding Entity” (Molecular Pharmaceutics, 2025).

Experiments:
[1] = test system: human serum albumin (HSA); assay: Albumin-binding properties in human blood plasma (ultrafiltration assay)
Experimental: (§1) The relative albumin-binding affinities of the radiopeptides in mouse and human blood plasma were determined using an ultrafiltration assay with Amicon centrifugal filters (cutoff of 10 kDa; Merck Millipore), as previously reported (Supporting Information). A fixed amount of the respective radiopeptide (15 μL, ∼300 kBq, 0.006 nmol) was added to a defined volume (150 μL) of mouse and human blood plasma dilutions to obtain [mouse serum albumin (MSA)]-to-[radiopeptide] and [human serum albumin (HSA)]-to-[radiopeptide] molar concentration ratios of 0.01–12,500 and 0.01–20,000, respectively. The data were analyzed using a semilogarithmic Hill plot with the maximum binding set as 100% (GraphPad Prism software, version 8.3.1).
(§2) Determination of the Albumin-Binding Properties
(§3) Purpose: The radiopeptides were investigated with regard to their albumin-binding capabilities in vitro
(§4) as a measure to predict blood retention in vivo.
(§5) Methods: The relative albumin-binding affinity of the radiopeptides in mouse blood plasma (Rockland
(§6) Immunochemicals, Inc., U.S.A.) and human blood plasma (Stiftung Blutspende SRK Aargau-
(§7) Solothurn, Switzerland) were determined using an ultrafiltration method. The amount of mouse serum
(§8) albumin (MSA) and human serum albumin (HSA) in mouse and human blood plasma was defined as
(§9) 550 μM and 800 μM, respectively, based on measurements using a dry chemistry analyzer (DRI-CHEM
(§10) 4000i, FUJIFILM, Japan). A fixed amount of radiopeptide (50 MBq/nmol, ~300 kBq, 15 μL, 0.006
(§11) nmol) was added to a defined volume (150 μL) of mouse and human blood plasma and various dilutions
(§12) thereof in PBS pH 7.4, resulting in defined [MSA]-to-[radiopeptide] or [HSA]-to-[radiopeptide] molar
(§13) concentration ratios ranging from 0.01 ‒12500 and 0.01‒20000, respectively, followed by incubation of
(§14) the samples at 37 °C for 30 min. Ice-cold PBS (150 µL, pH 7.4) was added before loading the blood
(§15) plasma samples on Amicon centrifugal filters (cut -off of 10 kDa; Merck Millipore) followed by
(§16) centrifugation (14000 rcf, 30 min, 4 °C) to allow the separation of the plasma protein -bound from the
(§17) plasma-unbound (free) fractions of each sample. The inserts of the filter devices were inverted and centrifuged at 200 rcf for 3 min to recover the protein -bound radiopeptide. The activity in the filtrate
(§18) and filter unit was measured in a γ-counter (1480 Wizard, PerkinElmer) and the counts were combined
(§19) assuming that the fraction retained in the filter membrane was not bound to proteins. The protein -bound
(§20) fraction was expressed as percentage of the whole activity (i.e. plasma protein -bound activity, activity
(§21) measured in the filtrate and activity measured in the filter (set as 100%) ). The data were analyzed using
(§22) a semi-logarithmic plot assuming a maximum binding of 100%. The Hill equation was fitted to the data
(§23) points and the half -maximum binding ( B50) based on the average curve obtained from three independent
(§24) experiments (GraphPad Prism software, version 8.3 .1). The relative albumin-binding affinit ies of the
(§25) reference compound, whose relative binding affinity was set as 1.0. The results were presented as the
(§26) B50 value obtained from the average curve from 3 independent experiments.

human uPAR = molecular target: T1, human uPAR (Homo sapiens, UniProt Q03405); assay: uPAR-binding affinity (KD values), saturation experiments with HEK-uPAR cells; conditions: saturation binding on HEK-uPAR cells, on ice (4 °C) 1 h, 1–1600 nM radiopeptide, ± AE105 40 µM; γ-counter; nonlinear regression; average ± SD, n=3
T1 construct: host or cells: HEK cells (HEK-uPAR)
Experimental: To determine the uPAR-binding affinity of the radiopeptides, saturation experiments were performed using HEK-uPAR cells in 48-well plates (Supporting Information). The cells were incubated on ice for 1 h in the presence or absence of excess AE105 (final concentration of 40 μM) together with the respective radiopeptide at a concentration range of 1–1600 nM. After rinsing the cells with PBS, they were lysed with an aqueous NaOH solution (1 M, 600 μL), transferred to radioimmunoassay tubes, and measured in a γ-counter (1480 Wizard, PerkinElmer). The K D values were determined by plotting the specific binding (values of samples incubated without AE105 minus the values of samples incubated with AE105) against the molar concentration of the added peptide. A nonlinear regression analysis was performed using GraphPad Prism software (version 8.3.1). The results were expressed as average ± SD of n = 3 independently performed experiments. […]
7. Determination of uPAR-Binding Affinity (KD Values)
Purpose: The uPAR-binding affinity of the radiopeptides were determined to investigate the impact of structural changes on the receptor binding.
Methods: HEK-uPAR cells were seeded in poly-D-lysine-coated 48-well plates (0.25 × 10 6 in 0.5 mL per well) using DMEM cell culture medium with supplements. The cells were incubated at 37 °C and 5% CO2 overnight to allow adhesion and growth. After removing the supernatant, the well plates with HEK-uPAR cells were placed on ice to prevent internalization of the radiopeptides. The cells were rinsed with cold PBS (0.5 mL, pH 7.4) followed by the addition of DMEM cell culture medium without supplements (450 µL/well) in the presence or absence of AE105 ( final concentration 40 µM) as a receptor-blocking agent. The radiopeptides (5 MBq/nmol) were diluted in PBS to obtain peptide concentrations ranging from 10 ‒16000 nM. From each dilution, 50 µL were added to each well to obtain final peptide concentrations of 1 nM to 1600 nM. The cells were incubated at 4 °C for 1 h before rinsing twice with PBS (0.5 mL, pH 7.4). The cells were lysed using an aqueous NaOH solution (1 M, 600 µL) and the lysates were transferred to RIA tubes for counting the activity in a γ-counter (1480 Wizard, PerkinElmer) . The KD values were determined by plotting specific binding (total binding minus unspecific binding) against the molar concentration of the added radiopeptide using GraphPad Prism (version 8.3.1). the results were then expressed as average K D values ± SD of n = 3 independent […]
Results: The results are reported in the main article.

[2] = Stability of the radiopeptides in human blood plasma; conditions: human
[3] = n-Octanol/PBS distribution coefficients (logD values); conditions: n-octanol/PBS pH 7.4, pH 7.4
Experimental: The radiopeptides diluted in phosphate-buffered saline (PBS) pH 7.4 (25 μL, ∼0.5 MBq, 0.01 nmol) were added to a mixture of PBS pH 7.4 (1475 μL) and n-octanol (1500 μL). The vials were vortexed vigorously for 1 min, followed by centrifugation (560 rcf, 6 min) for phase separation. Aliquots were taken from each phase and measured in a γ-counter (1480 Wizard, PerkinElmer). The distribution coefficients were calculated as the logarithmic value of the ratio of counts per minute (cpm) measured in the n-octanol phase relative to the cpm measured in the PBS phase.
Methods: The logD value of all radiopeptides was determined in a mixture of n-octanol and phosphate
buffered saline (PBS) pH 7.4 using phase separation followed by liquid-liquid extraction.
polystyrene radioimmunoassay (RIA) tubes were prepared for each radiopeptide with 1.5 mL n-octanol
and 1.475 mL PBS pH 7.4. The RIA tubes were rigorously vortexed and subsequently let to stand so
that the phase separation could take place. The radiopeptides (50 MBq/nmol) were diluted with PBS
pH 7.4 to obtain an activity concentration of 10 MBq/0.5 mL. A volume of 25 μL of these solutions
was added to each RIA tube (25 µL, ~0.5 MBq, 0.01 nmol) followed by vortexing for 1 min.
separation was achieved by centrifugation at 560 rcf for 6 min. The activity in the n-octanol and PBS
phase, respectively, was measured in a γ-counter (Wallac Wizard 1480, PerkinElmer).
coefficients were calculated as the logarithm of the ratio of counts per minute (cpm) measured in the n-
octanol phase relative to the cpm measured in the PBS pH 7.4 phase.
as described above three independent times for each radiopeptide.

[4] = Radiolytic stability of the radiopeptides in saline with L-ascorbic acid; conditions: 50 MBq/nmol in saline, 150 MBq/300 µL, L-ascorbic acid (3 mg, 20 µL) and NaOAc (0.5 M, 30 µL), HPLC, product peak relative to t=0 (100%), average ± SD, n=3
Experimental: The radiolytic stability of the radiopeptides (50 MBq/nmol) in saline (150 MBq/300 μL) was assessed in the absence and presence of L-ascorbic acid (3 mg added in a volume of 20 μL). After an incubation period of 1, 4, and 24 h, aliquots of the solutions were analyzed using HPLC. The integrated peak area representing the intact radiopeptide was expressed as the percentage of the sum of all peaks of the chromatogram. The final amount of intact radiopeptide was expressed as the percentage of the product peak obtained at t = 0, which was set as 100% (Supporting Information).
The radiolytic stability of [177Lu]Lu-DOTA-AE105 and the new 177Lu-labeled uPAR-targeting
radiopeptides (50 MBq/nmol) was assessed in vitro in the formulated solution . The radiopeptide s were
diluted in saline to obtain an activity concentration of 150 MBq in 300 µL in the presence of L-ascorbic
acid (3 mg, 20 µL) and NaOAc (0.5 M, 30 µL) to compensate for the acidic pH. Aliquots of the dilutions
were analyzed using HPLC after incubation periods of 1 h, 4 h and 24 h . The integrated peak area
measured for the intact radioligand peak was expressed as the percentage of the sum of the integrated
peak areas of each peak present in the chromatogram. The final amount of intact radiopeptide at t = 1 h,
4 h and 24 h was expressed by correcting the obtained percentage of the product peak to this peak
obtained at t = 0, which was set as 100%.

[5] = test system: HEK-uPAR xenograft-bearing nude mice; assay: Biodistribution studies in HEK-uPAR xenograft-bearing nude mice; conditions: average ± SD, n=3 animals
Experimental: (§27) All applicable international, national, and/or institutional guidelines for the care and use of laboratory animals were followed, and the herein reported experiments were carried out according to the guidelines of the Swiss Regulations for Animal Welfare. The preclinical studies were ethically approved by the Cantonal Committee of Animal Experimentation and permitted by the responsible cantonal authorities (License No. 75721). Five-week-old female CD1/nude (Crl:CD1-Foxn ^ nu ) and female immunocompetent FVB (FVB/NCrl) mice were obtained from Charles River Laboratories (Sulzfeld, Germany). All mice were acclimatized for at least 7 days, receiving standard rodent chow ad libitum before being included in the reported studies. The CD1/nude mice were subcutaneously inoculated with HEK-uPAR cells (7 × 10^6 cells in 100 μL PBS) on the right shoulder. […] Typically, it took 3–11 weeks to reach xenograft volumes of 40–600 mm^3 at the time of testing the tissue distribution of the radiopeptides. The immunocompetent FVB mice were used for testing the in vivo stability of the radiopeptides.
(§28) The mice were injected with the radiopeptides (5 MBq, 0.5 nmol, 100 μL) in saline containing 0.05% BSA and sacrificed at 4 and 24 h after injection of the radiopeptides. Selected tissues and organs were collected, weighed, and measured with the γ-counter (1480 Wizard, PerkinElmer). […] A p-value of <0.05 was considered a statistically significant difference (GraphPad Prism software, version 8.3.1).
(§29) Decay-corrected data is shown as average ± SD of n = 3 animals of % injected activity per gram (IA/g) tissue.

[6] = as above; conditions: female, mouse, 0.5 nmol, total radioactivity, 5 MBq, 0.5 nmol, decay-corrected, average ± SD, n=3 animals; for tissue uptake at 24 h: 24 h p.i.; for tissue uptake at 4 h: 4 h p.i.
Experimental: as §27, §28, §29

[7] = test system: mouse serum albumin (MSA); assay: Albumin-binding properties in mouse blood plasma (ultrafiltration assay)
Experimental: as §1, §2, §3, §4, §5, §6, §7, §8, §9, §10, §11, §12, §13, §14, §15, §16, §17, §18, §19, §20, §21, §22, §23, §24, §25, §26

[8] = CD1/nude, blood, 5 MBq (0.5 nmol)
[9] = CD1/nude, bone, 5 MBq (0.5 nmol)
[10] = CD1/nude, brain, 5 MBq (0.5 nmol)
[11] = CD1/nude, heart, 5 MBq (0.5 nmol)
[12] = CD1/nude, intestines, 5 MBq (0.5 nmol)
[13] = CD1/nude, kidneys, 5 MBq (0.5 nmol)
[14] = CD1/nude, liver, 5 MBq (0.5 nmol)
[15] = CD1/nude, lung, 5 MBq (0.5 nmol)
[16] = CD1/nude, muscle, 5 MBq (0.5 nmol)
[17] = CD1/nude, pancreas, 5 MBq (0.5 nmol)
[18] = CD1/nude, salivary glands, 5 MBq (0.5 nmol)
[19] = CD1/nude, spleen, 5 MBq (0.5 nmol)
[20] = CD1/nude, stomach, 5 MBq (0.5 nmol)

T1 sequence (Q03405 23-335): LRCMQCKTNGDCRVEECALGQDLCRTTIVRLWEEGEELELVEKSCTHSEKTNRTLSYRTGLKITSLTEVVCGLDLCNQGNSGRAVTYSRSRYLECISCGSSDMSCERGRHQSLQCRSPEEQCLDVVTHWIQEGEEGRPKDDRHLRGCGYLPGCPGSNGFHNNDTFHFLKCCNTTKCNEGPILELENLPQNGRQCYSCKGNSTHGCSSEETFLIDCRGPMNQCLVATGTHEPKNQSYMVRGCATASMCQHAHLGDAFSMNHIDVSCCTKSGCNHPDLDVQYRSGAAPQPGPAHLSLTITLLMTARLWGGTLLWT

CC(C)C[C@H](NC(=O)[C@H](Cc1ccc(O)cc1)NC(=O)[C@@H](CCCNC(=N)N)NC(=O)[C@@H](CO)NC(=O)[C@H](Cc1ccccc1)NC(=O)[C@H](CC1CCCCC1)NC(=O)[C@H](CC(=O)O)NC(=O)CCOCCOCCOCCOCCNC(=O)[C@H](CCCCNC(=O)CCCc1ccc(I)cc1)NC(=O)CN1CCN(CC(=O)O)CCN(CC(=O)O)CCN(CC(=O)O)CC1)C(=O)N[C@@H](Cc1c[nH]c2ccccc12)C(=O)N[C@@H](CO)C(N)=O [[^177Lu]Lu-uPAR-05, metal not drawn]
fold lower albumin-binding affinity than [177Lu]Lu-uPAR-01 ([1]; human blood plasma, ultrafiltration): 2.4 fold | Relative albumin-binding affinity, human blood plasma ([1]; ultrafiltration (Amicon, 10 kDa), human blood plasma dilutions in PBS pH 7.4, [HSA]-to-[radiopeptide] 0.01–20000, 0.006 nmol, 37 °C 30 min, γ-counter, inverse ratio of B50, [177Lu]Lu-uPAR-01 set as 1.00, average curve of 3 experiments): 0.43 | Kd (human uPAR): 0.01 ± 0.005 µM | remaining at 1 h, 10 MBq/200 µL ([2]; blood plasma): 99 ± 1% | remaining at 24 h, 10 MBq/200 µL ([2]; blood plasma): 99 ± 1% | remaining at 4 h, 10 MBq/200 µL ([2]; human blood plasma): 99 ± 1% | logD [3]: 0.24 ± 0.09 | radiolytic stability, % intact radiopeptide ([4]; 1 h): 99 ± 2% | radiolytic stability, % intact radiopeptide ([4]; 4 h): 97 ± 1% | radiolytic stability after 24 h, intact radiopeptide [%] ([4]; 24 h): 93 ± 1% | Xenograft-to-blood ratio ([5]; 4 h p.i.): 0.42 ± 0.07 | Xenograft-to-kidney ratio ([5]; 4 h p.i.): 1.4 ± 0.2 | Xenograft-to-liver ratio ([5]; 4 h p.i.): 0.98 ± 0.10 | Xenograft-to-blood ratio ([5]; 24 h p.i.): 0.66 ± 0.12 | Xenograft-to-kidney ratio ([5]; 24 h p.i.): 1.9 ± 0.3 | Xenograft-to-liver ratio ([5]; 24 h p.i.): 2.9 ± 0.3 | tissue uptake at 24 h ([6]; CD1/nude (Crl:CD1-Foxn nu), HEK-uPAR xenograft, HEK-uPAR xgft): 3.1 ± 0.7 %ID/g | tissue uptake at 4 h ([6]; CD1/nude, HEK-uPAR xenograft, 5 MBq (0.5 nmol), HEK-uPAR xgft): 5.1 ± 1 %ID/g | tissue uptake at 4 h [6, 8]: 12 ± 1 %ID/g | tissue uptake at 24 h [6, 8]: 4.6 ± 0.3 %ID/g | tissue uptake at 4 h [6, 9]: 1.1 ± 0.1 %ID/g | tissue uptake at 24 h [6, 9]: 0.67 ± 0.06 %ID/g | tissue uptake at 4 h [6, 10]: 0.27 ± 0.01 %ID/g | tissue uptake at 24 h [6, 10]: 0.11 ± 0.02 %ID/g | tissue uptake at 4 h [6, 11]: 4.1 ± 0.2 %ID/g | tissue uptake at 24 h [6, 11]: 1.6 ± 0.1 %ID/g | tissue uptake at 4 h [6, 12]: 1.6 ± 0.1 %ID/g | tissue uptake at 24 h [6, 12]: 0.73 ± 0.07 %ID/g | tissue uptake at 4 h [6, 13]: 3.6 ± 0.2 %ID/g | tissue uptake at 24 h [6, 13]: 1.6 ± 0.1 %ID/g | tissue uptake at 4 h [6, 14]: 5.2 ± 0.6 %ID/g | tissue uptake at 24 h [6, 14]: 1.1 ± 0.1 %ID/g | tissue uptake at 4 h [6, 15]: 7 ± 0.5 %ID/g | tissue uptake at 24 h [6, 15]: 2.6 ± 0.4 %ID/g | tissue uptake at 4 h [6, 16]: 1.1 ± 0.1 %ID/g | tissue uptake at 24 h [6, 16]: 0.41 ± 0.04 %ID/g | tissue uptake at 4 h [6, 17]: 1.4 ± 0.2 %ID/g | tissue uptake at 24 h [6, 17]: 0.62 ± 0.07 %ID/g | tissue uptake at 4 h [6, 18]: 2.5 ± 0.3 %ID/g | tissue uptake at 24 h [6, 18]: 1.1 ± 0.1 %ID/g | tissue uptake at 4 h [6, 19]: 1.5 ± 0.1 %ID/g | tissue uptake at 24 h [6, 19]: 0.82 ± 0.1 %ID/g | tissue uptake at 4 h [6, 20]: 1.3 ± 0.1 %ID/g | tissue uptake at 24 h [6, 20]: 0.64 ± 0.01 %ID/g | fold lower albumin-binding affinity than [177Lu]Lu-uPAR-01 ([7]; mouse blood plasma, ultrafiltration): 1.6 fold | Relative albumin-binding affinity, mouse blood plasma ([7]; ultrafiltration (Amicon, 10 kDa), mouse blood plasma dilutions in PBS pH 7.4, [MSA]-to-[radiopeptide] 0.01–12500, 0.006 nmol, 37 °C 30 min, γ-counter, inverse ratio of B50, [177Lu]Lu-uPAR-01 set as 1.00, average curve of 3 experiments): 0.61
